A word on the GI50: it is the concentration that inhibits growth by half. Usually TGI stands for the concentration giving total growth inhibition.

Our source for the GI50 and TGI values is PubChem BioAssay (NCI).

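Following 48 hours of exposure in 96-well plates, responses at five concentrations were used to interpolate endpoints linearly. At the GI50, growth is halved. At the TGI there is no net growth.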

Test systems include DU-145 prostate; K-562 leukemia; M14 melanoma; OVCAR-4 ovarian; OVCAR-8 ovarian; RPMI-8226 leukemia; RXF 393 renal; SK-MEL-28 melanoma; SK-MEL-5 melanoma; UO-31 renal.
Assay in all cases: DTP human tumour cell line panel, 48 h

As to `COc1ccc(/C(=N/Nc2ccc([N+](=O)[O-])cc2)Sc2cc(Cl)c(C)cc2S(N)(=O)=O)cc1`, the GI50 in the assay with DU-145 prostate was 3.8 µM; with K-562 leukemia, 4.67 µM; in the assay with M14 melanoma it was 5.75 µM; with OVCAR-4 ovarian it was 2.61 µM; in the assay with OVCAR-8 ovarian it was 7.28 µM; in the assay on RPMI-8226 leukemia, 5.11 µM. In addition, the GI50 in the assay with RXF 393 renal was 4.3 µM; with SK-MEL-28 melanoma, 6.57 µM; with SK-MEL-5 melanoma, 0.706 µM; with UO-31 renal it was 8.49 µM. For the same molecule, the TGI in the assay on DU-145 prostate was 9.77 µM; with K-562 leukemia, 15.4 µM; with M14 melanoma, 15.3 µM; in the assay on OVCAR-4 ovarian, 7.11 µM; in the assay with OVCAR-8 ovarian it was > 57 µM; with RPMI-8226 leukemia it was 13.6 µM. The TGI is 11.5 µM with RXF 393 renal, 16.6 µM in the assay on SK-MEL-28 melanoma, 7.43 µM in the assay with SK-MEL-5 melanoma and > 41.7 µM with UO-31 renal.

Turning to `NCCCCn1c2c(c3ccccc3c1=O)C(=O)c1ccccc1-2`, the GI50 is 0.0131 µM with DU-145 prostate; 0.168 µM in the assay on K-562 leukemia; 0.417 µM in the assay on M14 melanoma; 0.542 µM in the assay on OVCAR-4 ovarian; 0.0902 µM in the assay on OVCAR-8 ovarian; 0.0887 µM in the assay with RPMI-8226 leukemia. In addition, the GI50 is 0.644 µM in the assay with RXF 393 renal, 0.671 µM in the assay on SK-MEL-28 melanoma, 0.153 µM with SK-MEL-5 melanoma and 0.123 µM with UO-31 renal. The TGI in the assay with DU-145 prostate came out at 0.498 µM; with M14 melanoma, 1.86 µM; in the assay on OVCAR-4 ovarian, 5.08 µM; in the assay on OVCAR-8 ovarian it was 0.625 µM; with RPMI-8226 leukemia, 0.932 µM; in the assay with SK-MEL-5 melanoma, 1.25 µM. The molecule also gave a TGI in the assay with UO-31 renal of 1.45 µM.

As to `CC(C)(C)C1=CC(=CC=C2C=CN(CCCCCCCCCCCO)C=C2)C=C(C(C)(C)C)C1=O`, the TGI in the assay on DU-145 prostate turned out to be 20.7 µM; with K-562 leukemia, 4.87 µM; in the assay with M14 melanoma, 3.57 µM; in the assay on OVCAR-4 ovarian it was 3.57 µM; in the assay with OVCAR-8 ovarian, 2.1 µM; with RPMI-8226 leukemia it was 1.94 µM. In addition, the TGI amounted to 2.47 µM in the assay with RXF 393 renal, 3 µM in the assay with SK-MEL-28 melanoma, 3.31 µM in the assay on SK-MEL-5 melanoma and 3.67 µM with UO-31 renal.

Turning to `C[C@]12CC[C@@H]3c4ccc(O)cc4CC[C@H]3[C@@H]1CC[C@@H]2NS(=O)(=O)c1ccc(C(F)(F)F)cc1`, the GI50 with DU-145 prostate is 2.75 µM; in the assay with K-562 leukemia, 3.16 µM; with M14 melanoma, 1.9 µM; with OVCAR-4 ovarian it was 1.42 µM; with OVCAR-8 ovarian, 2.54 µM; in the assay on RPMI-8226 leukemia, 2.51 µM. In addition, the GI50 is 1.63 µM with RXF 393 renal, 1.68 µM with SK-MEL-28 melanoma, 1.7 µM in the assay with SK-MEL-5 melanoma and 1.6 µM in the assay with UO-31 renal. Besides, the concentration for total growth inhibition (TGI) in the assay on DU-145 prostate came to 7.11 µM; in the assay with K-562 leukemia, 8.69 µM; in the assay on M14 melanoma, 3.6 µM; in the assay with OVCAR-4 ovarian, 2.78 µM; in the assay with OVCAR-8 ovarian it was 6.95 µM; with RPMI-8226 leukemia, 6.79 µM. Also, the TGI with RXF 393 renal came out at 3.13 µM; in the assay with SK-MEL-28 melanoma, 3.08 µM; in the assay on SK-MEL-5 melanoma it was 3.07 µM; in the assay on UO-31 renal it was 3.43 µM.

For `CCC1(O)C(=O)OCc2c1cc1n(c2=O)Cc2cc3c(N)cccc3nc2-1` (centres undefined), the TGI is 0.25 µM in the assay with DU-145 prostate; > 48.2 µM in the assay on K-562 leukemia; 0.0872 µM in the assay with M14 melanoma; 11.6 µM with OVCAR-4 ovarian; 7.21 µM with OVCAR-8 ovarian; 0.879 µM in the assay with RPMI-8226 leukemia. The TGI in the assay with RXF 393 renal stood at 0.348 µM; in the assay on SK-MEL-28 melanoma, 9.19 µM; in the assay on SK-MEL-5 melanoma, 0.192 µM; in the assay with UO-31 renal, 0.126 µM. Besides, the concentration for 50% growth inhibition (GI50) in the assay on M14 melanoma was < 0.01 µM; with RPMI-8226 leukemia, 0.0279 µM.

As to `CC12CCCC(CC(=O)c3[nH]c4ccccc4c31)C2` (centres undefined), the GI50 with DU-145 prostate was 2.04 µM; in the assay with K-562 leukemia it was 0.345 µM; in the assay on M14 melanoma, 0.399 µM; with OVCAR-4 ovarian, 9.74 µM; in the assay on OVCAR-8 ovarian, 2.01 µM; in the assay with RPMI-8226 leukemia it was 0.656 µM. The GI50 in the assay on RXF 393 renal is 0.629 µM; in the assay with SK-MEL-28 melanoma, 2.03 µM; with SK-MEL-5 melanoma it was 0.669 µM; with UO-31 renal, 2.4 µM. Also, the TGI is 24.3 µM with DU-145 prostate; > 45.2 µM in the assay with K-562 leukemia; 17.3 µM in the assay on M14 melanoma; > 90.8 µM with OVCAR-4 ovarian; 30.7 µM in the assay with OVCAR-8 ovarian; 12.7 µM with RPMI-8226 leukemia. Moreover, the TGI is 4.88 µM in the assay with RXF 393 renal, > 100 µM in the assay on SK-MEL-28 melanoma, 15 µM in the assay on SK-MEL-5 melanoma and > 100 µM in the assay on UO-31 renal.

For `COc1cc(Cn2c(-c3ccccc3)cc3c2-c2oncc2CC3)cc(OC)c1OC`, the GI50 with DU-145 prostate was 1.73 µM; with K-562 leukemia, 0.364 µM; in the assay with M14 melanoma it was 0.468 µM; in the assay on OVCAR-4 ovarian, 3.12 µM; with OVCAR-8 ovarian, 5.38 µM; in the assay with RPMI-8226 leukemia it was 5.43 µM. Also, the GI50 with RXF 393 renal is 1.36 µM; with SK-MEL-28 melanoma, 1.14 µM; in the assay with SK-MEL-5 melanoma, 0.882 µM; with UO-31 renal, 3.23 µM. Moreover, the TGI was > 100 µM in the assay with DU-145 prostate; > 100 µM in the assay on K-562 leukemia; 13.4 µM with M14 melanoma; > 100 µM in the assay with OVCAR-4 ovarian; > 100 µM with OVCAR-8 ovarian; > 100 µM in the assay on RPMI-8226 leukemia. Also, the TGI in the assay with RXF 393 renal is 50.5 µM; in the assay with SK-MEL-28 melanoma it was 45.9 µM; in the assay with SK-MEL-5 melanoma it was 16.8 µM; with UO-31 renal, > 100 µM.

With `COC(=O)[C@]12CCC(C)(C)C[C@H]1C1=CC[C@@H]3[C@@]4(C)C/C(=C/c5cccnc5)C(=O)C(C)(C)[C@@H]4CC[C@@]3(C)[C@]1(C)CC2`, the GI50 with DU-145 prostate is 8.86 µM; in the assay on K-562 leukemia, 3.2 µM; with M14 melanoma, 3.63 µM; in the assay with OVCAR-4 ovarian, 11.3 µM; with OVCAR-8 ovarian it was 3.82 µM; in the assay on RPMI-8226 leukemia, 2.31 µM. In addition, the GI50 in the assay on RXF 393 renal was 4.25 µM; with SK-MEL-28 melanoma, 6.89 µM; with SK-MEL-5 melanoma, 5.58 µM; with UO-31 renal, 3.21 µM. Further, the TGI was > 100 µM with DU-145 prostate; > 100 µM with K-562 leukemia; 13.4 µM with M14 melanoma; > 100 µM with OVCAR-4 ovarian; 60.8 µM with OVCAR-8 ovarian; 6.39 µM with RPMI-8226 leukemia. Moreover, the TGI was 17.5 µM in the assay with RXF 393 renal, 20 µM with SK-MEL-28 melanoma, 17.9 µM with SK-MEL-5 melanoma and 24.4 µM with UO-31 renal.

`COc1ccc(-c2nc(-c3nc4ccc(C)cc4[nH]3)c3ccccn23)cc1`: the GI50 with DU-145 prostate is 2.85 µM; with K-562 leukemia it was 2.92 µM; in the assay with M14 melanoma it was 3.15 µM; in the assay on OVCAR-4 ovarian it was 3.81 µM; in the assay on OVCAR-8 ovarian, 2.05 µM; in the assay with RPMI-8226 leukemia, 1.47 µM. Further, the GI50 with RXF 393 renal was 7.73 µM; in the assay with SK-MEL-28 melanoma, 4.61 µM; in the assay on SK-MEL-5 melanoma, 1.39 µM; in the assay on UO-31 renal, 1.67 µM. Moreover, the TGI in the assay with DU-145 prostate is > 100 µM; in the assay on K-562 leukemia it was > 100 µM; in the assay on M14 melanoma it was 8.6 µM; in the assay with OVCAR-4 ovarian, > 100 µM; in the assay with OVCAR-8 ovarian, 6.15 µM; in the assay with RPMI-8226 leukemia, 3.93 µM. Also, the TGI is > 100 µM in the assay with RXF 393 renal, > 100 µM in the assay with SK-MEL-28 melanoma, 2.72 µM with SK-MEL-5 melanoma and 6.09 µM in the assay with UO-31 renal.

On to `COc1cccc(NCc2nnc(Nc3ccc(Cl)cc3)c3ccccc23)c1`, for which the GI50 is 2.4 µM in the assay with DU-145 prostate; 1.49 µM in the assay on K-562 leukemia; 0.85 µM with M14 melanoma; 1.33 µM with OVCAR-4 ovarian; 3.61 µM with OVCAR-8 ovarian; 1.48 µM in the assay on RPMI-8226 leukemia. In addition, the GI50 is 2.16 µM with RXF 393 renal, 2.62 µM in the assay on SK-MEL-28 melanoma, 0.819 µM with SK-MEL-5 melanoma and 0.608 µM in the assay with UO-31 renal. For the same molecule, the TGI in the assay on DU-145 prostate was determined as 6.52 µM; with K-562 leukemia it was 13.1 µM; in the assay with M14 melanoma it was 4.69 µM; with OVCAR-4 ovarian it was 17.6 µM; with OVCAR-8 ovarian it was 14.7 µM; in the assay on RPMI-8226 leukemia, 7.51 µM. Moreover, the TGI in the assay with RXF 393 renal is 6.11 µM; in the assay with SK-MEL-28 melanoma, 6.17 µM; with SK-MEL-5 melanoma, 4.18 µM; in the assay with UO-31 renal, 5.28 µM.

Regarding `O=c1[nH]c(=O)n(C2CC(O)C(CS)O2)cc1F` (centres undefined), the concentration for total growth inhibition (TGI) in the assay on DU-145 prostate was > 100 µM; with K-562 leukemia, > 100 µM; in the assay on M14 melanoma, > 100 µM; in the assay on OVCAR-4 ovarian it was > 100 µM; in the assay on OVCAR-8 ovarian, > 63.1 µM; in the assay on RPMI-8226 leukemia it was > 100 µM. The TGI with RXF 393 renal, in the assay with SK-MEL-28 melanoma, in the assay on SK-MEL-5 melanoma and in the assay with UO-31 renal was > 100 µM each time.
